The record followed here is patent publication US20240262806A1, “INHIBITORS OF NLRP3” (PTC THERAPEUTICS, INC., priority 2021, published 2024).

What is called IC50 is the concentration at which inhibition is half-maximal.

One assay deals with NLRP3 inflammasome. The assay is described as follows: IL-1β Secretion Assay (NLRP3-dependent IL-1β secretion in PMA-differentiated THP-1 cells, nigericin activation, HTRF). In kind it is cell-based. The note with it: Homo sapiens, THP-1, THP-1 cells, 100 ng/mL PMA 24 h, compound 20 h, 2.5 μM Nigericin 3 h; read-out: IC50 IL-1β Inhibition. On the procedure:
Cells were washed 1× with 100 ul PBS and replaced with fresh RPMI+5% FBS. Compounds were serial diluted in DMSO with 3 fold dilution for a total of 7 concentrations.
Compounds, once produced and prepared according to the present invention, can be assessed in variety of assays to characterize their activities. […] IC50 values of IL1β inhibition were calculated from the plot of percentage of inhibition versus the inhibitor concentration by a logistics fit. TABLE I depict examples of compounds according to generic Formulae I. Data which is <1 nM is listed as *****; data 1-10 nM is listed as ****; data 10-100 nM is listed as ***, data 100-300 nM is listed as **, data >300 nM is listed as *.
For orientation: TR-FRET usually uses a lanthanide donor and a delayed reading to cut background.
As to `CN1CCC[C@@H](Nc2nnc(-c3ccc(C(F)(F)F)cc3)c3ccncc23)C1` [Compound I-166], the IC50 fell in the range of 1 to 10 nM.

Regarding `CC(C)N1CCC[C@H](Nc2nnc(-c3ccc(Cl)cc3O)c3cncn23)C1` [Compound I-553], the IC50 is under 1 nM.

For the compound `Oc1cc(Cl)ccc1-c1nnc(N[C@@H]2CCCOC2)n2cncc12` [Compound I-518, (R)-5-Chloro-2-(4-((tetrahydro-2H-pyran-3-yl)amino)imidazo[1,5-d][1,2,4]triazin-1-yl)phenol], the IC50 lay in the range of 1 to 10 nM.

As to `CCN1CCC[C@@H](Nc2nnc(-c3ccc(OC(F)(F)F)cc3O)c3c(F)ccn23)C1` [Compound I-604], the IC50 lay within 1 to 10 nM.

As for `C[C@]1(O)C[C@@H](Nc2nnc(-c3c(O)cc(Cl)cc3F)c3cccn23)C1` [Compound I-434], the IC50 is 1 to 10 nM.

Regarding `CN1CCC[C@@H](Nc2nnc(-c3ccc(C(F)(F)F)cc3OC(F)F)c3c2CCC3)C1` [Compound I-236], the IC50 lay within 1 to 10 nM.

As to `COc1cc(C(F)(F)F)ccc1-c1nnc(N[C@@H]2CCCN(C)C2)c2cnccc12` [Compound I-119], the IC50 lay within 1 to 10 nM.

With `Oc1cc(Br)ccc1-c1nnc(N[C@@H]2CCCNC2)n2nccc12` [Compound I-391], the IC50 lay within 1 to 10 nM.

Regarding `Oc1cc(C(F)(F)F)ccc1-c1nnc(N[C@@H]2CCCNC2)c2ccccc12` [Compound I-20, 2-[4-[[(3R)-3-Piperidyl]amino]phthalazin-1-yl]-5-(trifluoromethyl)phenol], the IC50 was under 1 nM.

Take `CN1CCC[C@@H](Nc2nnc(-c3ccc(C(F)(F)F)cc3O)c3c2N(C)CCO3)C1` [Compound I-117]: the IC50 is 10 to 100 nM.

As to `CCN1CCC[C@@H](Nc2nnc(-c3c(O)cc(Cl)cc3F)c3cc(C)nn23)C1` [Compound I-579], the IC50 was under 1 nM.

Consider `Oc1cc(Br)ccc1-c1nnc(N[C@@H]2CCCN(CC(F)F)C2)n2nccc12` [Compound I-548], for which the IC50 was in the range of 1 to 10 nM.

For the compound `CCOC(=O)CN1CCC[C@@H](Nc2nnc(-c3ccc(C(F)(F)F)cc3O)c3ccccc23)C1` [Compound I-65, Ethyl (R)-2-(3-((4-(2-hydroxy-4-(trifluoromethyl)phenyl)phthalazin-1-yl)amino)piperidin-1-yl)acetate], the IC50 was under 1 nM.

For the compound `CN1CCC[C@@H](Nc2nnc(-c3ccc(C(F)(F)F)cc3OC(F)F)c3c(F)ccn23)C1` [Compound I-394], the IC50 was 1 to 10 nM.

For `CN1CCC[C@H](Oc2nnc(-c3ccc(C(F)(F)F)cc3O)c3ccccc23)C1` [Compound I-22], the IC50 lay in the range of 100 to 300 nM.

As to `COc1cc(O)c(-c2nnc(N[C@@H]3CCCN(C)C3)n3nc(C)cc23)c(F)c1` [Compound I-551], the IC50 is under 1 nM.

Turning to `[2H]C([2H])([2H])Oc1cc(O)c(-c2nnc(N[C@@H]3CCCN(CC)C3)n3cccc23)c(F)c1` [Compound I-514, (R)-2-(4-((1-ethylpiperidin-3-yl)amino)pyrrolo[1,2-d][1,2,4]triazin-1-yl)-3-fluoro-5-(methoxy-d3)phenol], the IC50 was under 1 nM.

`CN1CCC[C@@H](Nc2nnc(-c3ccc(C4CC4)cc3O)c3c(F)ccn23)C1` [Compound I-599]: the IC50 was in the range of 1 to 10 nM.

As for `Oc1cc(C(F)(F)F)ccc1-c1nnc(N[C@@H]2CCCN(C3CCOC3)C2)c2cnccc12` (stereo partly drawn) [Compound I-281], the IC50 is under 1 nM.

Regarding `CN1CCC[C@@H](Nc2nnc(-c3ccc(Cl)cc3O)c3cccnc23)C1` [Compound I-67], the IC50 was under 1 nM.

Turning to `COc1ccc(-c2nnc(N[C@@H]3CCCN(C)C3)c3cc(C)nn23)c(O)c1` [Compound I-351], the IC50 lay in the range of 10 to 100 nM.

As for `CN1CCCC[C@H](Nc2nnc(-c3ccc(C(F)(F)F)cc3O)c3ccncc23)C1` [Compound I-186], the IC50 was 10 to 100 nM.

For `Cc1nc(-c2ccc(-c3nnc(N[C@@H]4CCCNC4)c4ccccc34)c(O)c2)ns1` [Compound I-32], the IC50 was in the range of 10 to 100 nM.

Regarding `C[C@]1(O)C[C@@H](Nc2nnc(-c3ccc(C(F)(F)F)cc3O)c3cncn23)C1` [Compound I-527], the IC50 was in the range of 1 to 10 nM.

On to `CN1CCC[C@@H](Nc2nnc(-c3c(O)cc(C4CC4)cc3F)c3ccncc23)C1` [Compound I-196], for which the IC50 is under 1 nM.

As for `Cc1cc(O)c(-c2nnc(N[C@@H]3CCCN(CC(F)(F)F)C3)n3cccc23)c(F)c1` [Compound I-570], the IC50 lay in the range of 1 to 10 nM.

For `CN1CCC[C@@H](Nc2nnc(-c3ccc(C(F)(F)F)cc3C(F)(F)F)c3cccn23)C1` [Compound I-348], the half-maximal inhibitory concentration (IC50) fell in the range of 1 to 10 nM.

Turning to `C[C@@H](O)CNc1nnc(-c2c(O)cc(C3CC3)cc2F)c2cccn12` [Compound I-496], the IC50 was in the range of 10 to 100 nM.

Consider `CN1C[C@H](O)C[C@@H](Nc2nnc(-c3ccc(C(F)(F)F)cc3O)c3c(F)ccn23)C1` [Compound I-597], for which the IC50 was in the range of 10 to 100 nM.

Take `CN(c1nnc(-c2ccc(C(F)(F)F)cc2O)c2ccncc12)[C@@H]1CCCNC1` [Compound I-292, (R)-2-(4-(Methyl(piperidin-3-yl)amino)pyrido[3,4-d]pyridazin-1-yl)-5-(trifluoromethyl)phenol]: the IC50 was 1 to 10 nM.

Turning to `CCN1CCC[C@@H](Nc2nnc(-c3c(O)cc(C(F)(F)F)cc3F)c3cccn23)C1` [Compound I-414], the half-inhibitory concentration (IC50) was under 1 nM.

As to `CCN1C[C@H](F)C[C@@H](Nc2nnc(-c3ccc(C(F)(F)F)cc3C(F)(F)F)c3cccn23)C1` [Compound I-535], the IC50 lay in the range of 1 to 10 nM.

Regarding `COc1ccc(-c2nnc(N[C@@H]3CCCN(C)C3)n3nc(C)cc23)c(C(F)(F)F)c1` [Compound I-381], the IC50 lay within 1 to 10 nM.

Take `CN1CCC[C@@H](Nc2nnc(-c3ccc(-n4nccn4)cc3O)c3ccncc23)C1` [Compound I-137]: the IC50 was under 1 nM.

As for `CN1CCC[C@@H](Nc2nnc(-c3ccc(Cl)cc3OC(F)F)c3c2CCC3)C1` [Compound I-241], the IC50 is 10 to 100 nM.

On to `Cc1ccc(-c2nnc(N[C@@H]3CCCN(C)C3)c3cnccc23)c(OC(F)F)c1` [Compound I-134], for which the IC50 lay in the range of 1 to 10 nM.

With `CN1CCC[C@@H](Nc2nnc(-c3ccc(Br)cc3OC(F)(F)F)c3cccn23)C1` [Compound I-504], the IC50 is under 1 nM.

In the case of `O[C@H]1CCC[C@@H](Nc2nnc(-c3ccc(C(F)(F)F)cc3OC(F)F)c3cccn23)C1` [Compound I-361, (1S,3R)-3-[[1-[2-(Difluoromethoxy)-4-(trifluoromethyl)phenyl]pyrrolo[1,2-d][1,2,4]triazin-4-yl]amino]cyclohexanol], the IC50 was 1 to 10 nM.

For the compound `COc1cc(O)c(-c2nnc(N[C@@H]3CCCN(CCO)C3)n3cccc23)c(F)c1` [Compound I-457], the IC50 was 1 to 10 nM.

In the case of `CN1C[C@H](F)C[C@@H](Nc2nnc(-c3ccc(OC(F)F)cc3OC(F)F)c3cccn23)C1` [Compound I-615], the IC50 was in the range of 10 to 100 nM.

`CN1C[C@H](F)C[C@@H](Nc2nnc(-c3ccc(C(F)(F)F)cc3C(F)(F)F)c3cccn23)C1` [Compound I-468]: the IC50 is 1 to 10 nM.

For `Oc1cc(C(F)(F)F)ccc1-c1nnc(N[C@@H]2CC[C@H](O)C2)n2cccc12` [Compound I-448], the IC50 was in the range of 10 to 100 nM.

`CN1CCC[C@@H](Nc2nnc(-c3ccc(C4=CCOC4)cc3O)c3ccccc23)C1` [Compound I-57]: the IC50 was in the range of 1 to 10 nM.

As to `COc1cc(C(F)(F)F)ccc1-c1nnc(N[C@@H]2CCCCNC2)c2cnccc12` [Compound I-251], the IC50 was 100 to 300 nM.

Still in this assay, the particulars now being: THP-1 cells, 100 ng/mL PMA 24 h, compound 20 h, 2.5 μM Nigericin 3 h; read-out: IC50 IL-1β Inhibition.
On to `CN1CCC[C@@H](Nc2nnc(-c3c(F)ccc(Cl)c3O)c3ccncc23)C1` [Compound I-209], for which the IC50 lay within 1 to 10 nM.
